Measured values as given in article PMC3242765, “Inhibitors of Alphavirus Entry and Replication Identified with a Stable Chikungunya Replicon Cell Line and Virus-Based Assays” (PLoS ONE, 2011).
Counter-ions that a name gives are not always drawn.

Key:
CHIKV replicon = test: microbe, parasite or virus in culture; assay type: cell-based, Chikungunya virus (CHIKV)

SMILES | CHIKV replicon % left (CHIKV replicon) [%] | SFV replication % left (surviving fraction, remaining percentage of SFV replication) (SFV-Rluc) [%]
Cc1cc(=O)oc2cc(O)ccc12 [4-Methylumbelliferone] | 105.6 | 90.9
C[C@@]12CCC[C@H]1[C@@H]1CC[C@H]3CCCC[C@]3(C)[C@H]1CC2 [4-a-Androstane] | 85.5 | 53.0
Cc1cc(=O)oc2cc(O)cc(O)c12 [5,7-Dihydroxy-4-methylcoumarin] | 78.1 | 66.7
Cc1cc(=O)oc2cc(O)c(O)cc12 [6,7-Dihydroxy-4-methylcoumarin] | 95.4 | 131.1
O=C(O)c1cc2cc(Br)cc(Br)c2oc1=O [6,8-Dibromocoumarin carboxylic acid] | 100.1 | 67.4
COc1ccc2oc(=O)cc(C)c2c1 [6-Methoxy-4-methylcoumarin] | 85.4 | 66.6
Cc1ccc2oc(=O)ccc2c1 [6-Methylcoumarin] | 106.5 | 83.6
CCCc1cc(=O)[nH]c(=S)[nH]1 [6-Propyl-2-thiouracil] | 100.5 | 81.0
Cn1c(=O)c2c(ncn2CC(O)CO)n(C)c1=O (stereo not drawn) [7-(2,3-Dihydroxypropyl)theophylline] | 54.3 | 100.1
CC(O)Cn1cnc2c1c(=O)n(C)c(=O)n2C (stereo not drawn) [7-(β-Hydroxypropyl)theophylline] | 70.9 | 125.5
COc1ccc2c(C)cc(=O)oc2c1 [7-Methoxy-4-methylcoumarin] | 100.6 | 72.2
C#C[C@]1(O)CC[C@H]2[C@@H]3CCc4cc(O)ccc4[C@H]3CC[C@@]21C [17 -a-ethynylestradiol] | 59.8 | 11.7
Oc1cc(O)c2c(c1)O[C@H](c1ccc(O)c(O)c1)[C@@H](O)C2 [(+)-Catechin] | 96.5 | 64.5
O=C1c2c(O)cc(O)cc2O[C@H](c2ccc(O)c(O)c2)[C@H]1O [(+)-Taxifolin] | 105.4 | 93.7
Cc1c(C)c2c(c(C)c1OC(=O)CCC(=O)O)CC[C@@](C)(CCC[C@H](C)CCC[C@H](C)CCCC(C)C)O2 [(+)-a-Tocopherol acid succinate] | 62.2 | 75.3
Oc1cc(O)c2c(c1)O[C@H](c1ccc(O)c(O)c1)[C@H](O)C2 [(-)-Epicatechin] | 79.6 | 97.1
O=C(O[C@@H]1Cc2c(O)cc(O)cc2O[C@@H]1c1cc(O)c(O)c(O)c1)c1cc(O)c(O)c(O)c1 [(-)-Epigallocatechin gallate] | 90.4 | 155.3
Oc1cc(O)c2c(c1)O[C@H](c1cc(O)c(O)c(O)c1)[C@H](O)C2 [(-)-Epigallocatechin] | 89.9 | 101.9
O=C(O)[C@]1(O)C[C@@H](O)[C@@H](O)[C@H](O)C1 [(-)-Quinic acid] | 106.9 | 98.2

SMILES | CHIKV replicon % left (CHIKV replicon) [%] | SFV replication % left (surviving fraction, remaining percentage of SFV replication) (SFV-Rluc) [%]
COc1ccc(-c2cc(=O)c3c(O)cc(O)cc3o2)cc1 [Acacetin] | 103.3 | 78.1
CC(=O)Nc1ccc(O)cc1 [Acetaminophen [paracetamol]] | 85.2 | 63.5
CC(=O)Nc1ccccc1 [Acetanilide] | 92.2 | 57.3
CC(=O)Nc1nnc(S(N)(=O)=O)s1 [Acetazolamide] | 102.2 | 71.3
O=C1NC2NC(=O)NC2N1 (stereo not drawn) [Acetyleneurea [acetylene carbamide]] | 105.4 | 55.2
CC(=O)N(c1onc(C)c1C)S(=O)(=O)c1ccc(N)cc1 [Acetylsulfisoxazole] | 82.1 | 40.4
C=CCC1(CC=C)C(=O)NC(=O)NC1=O [Allobarbital] | 121.1 | 45.6
O=c1cc(-c2ccccc2)oc2c1ccc1ccccc12 [Alphanaphthoflavone] | 30.8 | 14.6
CCC(CN(C)C)(CN(C)C)OC(=O)c1ccccc1.Cl [Amydricaine hydrochloride] | 74.3 | 43.4
c1ccc(CN(CC2=NCCN2)c2ccccc2)cc1 [Antazoline hydrochloride] | 100.5 | 38.7
Cc1cc(=O)n(-c2ccccc2)n1C [Antipyrine] | 102.6 | 60.1
COC(=O)C1=CCCN(C)C1 [Arecoline hydrobromide] | 101.1 | 83.6
C[N+]1(C)[C@@H]2CC[C@H]1C[C@@H](OC(=O)C(CO)c1ccccc1)C2 (stereo partly drawn) [Atropine methyl nitrate] | 61.7 | 46.8
CCCCNCC(O)c1ccc(O)cc1 (stereo not drawn) [Bamethan] | 96.9 | 67.1
CCC1(CC)C(=O)NC(=O)NC1=O [Barbital] | 106.1 | 64.7
O=C1CC(=O)NC(=O)N1 [Barbituric acid] | 88.4 | 48.8
CCOC(=O)c1ccc(N)cc1 [Benzocaine] | 85.4 | 43.4
O=C(O)c1ccccc1 [Benzoic acid] | 99.1 | 71.6
COc1c2ccoc2cc2oc(=O)ccc12 [Bergapten, 5-Methoxypsoralen] | 100.5 | 46.8

SMILES | CHIKV replicon % left (CHIKV replicon) [%] | SFV replication % left (surviving fraction, remaining percentage of SFV replication) (SFV-Rluc) [%]
CN(Cc1cc(Br)cc(Br)c1N)C1CCCCC1 [Bromhexine hydrochloride] | 82.8 | 64.8
CCCCNC(=O)c1ccc(Cl)cc1O [Buclosamide] | 100.6 | 49.6
CC(C)(C)NCC(O)COc1ccccc1C#N (stereo not drawn) [Bunitrolol] | 58.9 | 40.7
CS(=O)(=O)OCCCCOS(C)(=O)=O [Busulfan] | 100.5 | 51.8
CCCCC1(CC)C(=O)NC(=O)NC1=O [Butethal] | 78.2 | 45.2
CCC(C)NCC(O)c1ccc2c(c1)CCCC2 (stereo not drawn) [Butidrine] | 89.2 | 73.1
CCCCOC(=O)c1ccc(N)cc1 [Butyl 4-Aminobenzoate] | 102.7 | 76.6
COc1ccc(O)c(C(C)(C)C)c1 [Butylated hydroxyanisole] | 79.9 | 66.8
Cc1cc(C(C)(C)C)c(O)c(C(C)(C)C)c1 [Butylated hydroxytoluene] | 47.8 | 72.6
O=C(O)/C=C/c1ccc(O)c(O)c1 [Caffeic acid] | 85.2 | 98.7
CCCCNc1ccc(C(=O)OCCN(C)C)cc1 [Cainopan, p-Butylaminobenzoyldimethylaminoethanol] | 82.2 | 63.8
CC(C)(CO)[C@@H](O)C(=O)NCCC(=O)O [Calcium pantothenate] | 89.1 | 67.9
CC[C@@]1(O)C(=O)OCc2c1cc1n(c2=O)Cc2cc3ccccc3nc2-1 [Camptothecin] | 100.4 | 87.7
NC(=O)N1c2ccccc2C=Cc2ccccc21 [Carbamazepine] | 100.2 | 57.2
CC(C)(C)NCC(O)COc1cccc2c1CCC(=O)N2 (stereo not drawn) [Carteolol hydrochloride] | 78.1 | 67.2
Oc1ccccc1O [Catechol] | 77.7 | 58.4
CCCCCCCCCCCCCCCC[N+](C)(C)C [Cetrimonium bromide] | 80.5 | 75.0
O=C(N[C@H](CO)[C@H](O)c1ccc([N+](=O)[O-])cc1)C(Cl)Cl [Chloramphenicol] | 53.2 | 73.8
CNC1=Nc2ccc(Cl)cc2C(c2ccccc2)=[N+]([O-])C1 [Chlordiazepoxide] | 100.6 | 54.3
